Columns and labels:
[1] = system: KG1a leukemic stem cells (Lin–/CD34+/CD38–/CD123+); experiment: Leukemic stem cell targeting in KG1a cultures (flow cytometry); format: cell-based, human; conditions: 72 h, LSC vs bulk tumor
Protocol: The acute myeloid leukemia (AML) KG1a cell line was maintained in RPMI medium (Invitrogen, Paisley, U.K.) supplemented with 100 units/mL penicillin, 100 μg/mL streptomycin, and 20% FBS. […] In addition, control cultures were carried out to which no drug was added. The cells were subsequently harvested by centrifugation and were analyzed by flow cytometry using the Annexin V assay. All experiments were performed in triplicate. LC50 values (the concentration of compound required to kill 50% of the cells in culture) were calculated by nonlinear regression modeling using GraphPad Prism software and are shown as mean ± standard error of the mean (SEM) for each replicate data set.
Cells were then harvested, and KG1a cells were labeled with anti-CD34 (FITC), anti-CD38 (PE), and anti-CD123 (PERCP cy5). The subpopulation expressing a leukemic stem cell (LSC) phenotype was subsequently identified and was expressed as a percentage of all viable cells left in the culture. The percentages of stem cells remaining were then plotted on a dose–response graph, and the effects of the ProTides were compared with the parental nucleoside to determine if they preferentially target cancer stem cells

Plasma stability = format: in vitro ADME; conditions: for half-life at 24 h, 20 µM: human, plasma
Protocol: […] After incubation, 100 μL of each sample was taken and 300 μL of 100% methanol was added and left on ice for 30 min. After 30 min, the mixture was centrifuged (14 000 rpm, 4 °C, 10 min), and the supernatant was transferred to new tubes and evaporated under SpeedVac. Then, the dried extract was reconstituted in 100 μL of 10% acetonitrile, then transferred to LC-MS vials, and 10 μL was injected into the UPLC-MS/MS system.

carboxypeptidase Y = target: T1, carboxypeptidase Y (Saccharomyces cerevisiae, UniProt P00729); experiment: Carboxypeptidase Y assay (31P NMR); format: in vitro ADME; conditions: acetone-d6/Trizma buffer pH 7.6, 31P NMR
T1 construct: purchased Sigma-Aldrich
Protocol: ProTides 7a (5 mg, ±0.008 mmol) was dissolved in 150 μL of acetone-d6, and 300 μL of trizma buffer (pH 7.6) was added. A ^31P NMR (202 MHz, 64–128 scans) was conducted at this stage as a reference (blank, t = 0). To this mixture, 130 μL of a stock solution of carboxypeptidase enzyme (purchased from Sigma-Aldrich, >50 unit/mg, dissolved in trizma buffer 7.6 pH to a concentration of 50 units/mL, EC 3.4.16.1) was added. ^31P NMR (128 scans) were carried out with 1 min of delay between experiments for 14 h at 25 °C.

[2] = system: CEM, K562, HL-60, and CRL cell lines; experiment: Intracellular 3′-dATP quantification, cell lines together; format: cell-based, human
Protocol: HL-60 (ATCC CCL-240), K562 (ATCC CCL-243), CCRF-CEM (ATCC CRM-CCL-119), and RL (ATCC CRL-2261) leukemia cell lines were obtained from the American Type Culture Collection (ATCC), Middlesex. HL-60 and K562 cell lines are deoxynucleotidyl transferase-negative (TdT^–ve), whereas CCRF-CEM cell line is TdT^+ve. They were cultured in RPMI-1640 medium (Sigma-Aldrich, U.K.), which were supplemented with 10% fetal bovine serum (FBS) (PAA Laboratories), 1% amphotericin B (5.5 mL), and 1% penicillin/streptomycin (5.5 mL) (PAA Laboratories) and grown in flasks at 37 °C in an incubator with 5% CO2. […]
The analytes were resolved using an ultraperformance liquid chromatography system (Accela UPLC, Thermo Scientific, U.K.) equipped with a Biobasic A × 5 μm, 50 × 2.1 mm column (Thermo Electron Corporation, Murrieta, CA) and mobile phase consisting of a mixture of 10 mM NH4Ac in ACN/H2O (30:70 v/v), pH 6.0 (A), and 1 mM NH4Ac in ACN/H2O (30:70 v/v), pH 10.5 (B). […] Eluting compounds of interest were detected using a triple-stage quadrupole Vantage mass spectrometry system (Thermo Scientific, U.K.) equipped with an electrospray ion source. Samples were analyzed in the Multiple Reaction Monitoring, negative-ion modes at a spray voltage of 3000 V. Nitrogen was used as sheath and auxiliary gas at flow rates of 50 and 20 arbitrary units, respectively. […]

[3] = system: advanced solid tumors or lymphoma; design: method as in PMID 34497073; conditions: preliminary findings, phase I/II trial; cited from earlier work

T1 sequence (P00729 112-532, species assumed): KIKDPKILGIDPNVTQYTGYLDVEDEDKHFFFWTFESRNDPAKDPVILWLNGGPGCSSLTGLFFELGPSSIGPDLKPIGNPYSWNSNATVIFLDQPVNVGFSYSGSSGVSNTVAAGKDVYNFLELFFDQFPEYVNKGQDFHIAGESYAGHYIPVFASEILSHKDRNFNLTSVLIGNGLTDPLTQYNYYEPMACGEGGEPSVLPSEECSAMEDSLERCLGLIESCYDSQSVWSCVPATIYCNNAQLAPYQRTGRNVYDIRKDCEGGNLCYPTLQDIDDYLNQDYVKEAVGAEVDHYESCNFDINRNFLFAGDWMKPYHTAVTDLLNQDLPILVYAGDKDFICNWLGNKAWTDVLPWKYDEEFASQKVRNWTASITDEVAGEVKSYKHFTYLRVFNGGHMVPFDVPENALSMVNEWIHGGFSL

Row | Compound | effect on proportion of leukemic stem cells (LSCs) [1] | remaining after 24 h (Plasma stability; human plasma, with EHNA) [%] | time until completely metabolized (Plasma stability; human plasma, without EHNA) [h] | half-life at 24 h, 20 µM (Plasma stability; with EHNA) [h] | half-life at 24 h, 20 µM (Plasma stability; without EHNA) [h] | concentration detected after 30 s of incubation (Plasma stability; human plasma) [ng/mL] | change in plasma concentration (Plasma stability; human plasma, up to 4 h) | time to complete conversion into aminoacyl phosphoramidate ester II (carboxypeptidase Y) [h] | effect of hENT1, AK, and ADA inhibitors on intracellular 3′-dATP levels [2] | anticancer activity [3] | tolerability [3]
1 | Nc1ncnc2c1ncn2[C@@H]1O[C@H](CO)C[C@H]1O [3′-dA, 3′-Deoxyadenosine, reference compound] | increased selectivity and potency against the putative leukemic stem cells | 42.1 | 4 | 4.2 | 1.03 |  |  |  |  |  | 
2 | C[C@H](NP(=O)(OC[C@@H]1C[C@@H](O)[C@H](n2cnc3c(N)ncnc32)O1)Oc1ccccc1)C(=O)OCc1ccccc1 (stereo partly drawn) [Compound 7a, (Rp)- and (Sp)-3′-Deoxyadenosine 5′-O-phenyl-(benzoxy-L-alaninyl)-phosphate] | significantly reducing the LSC population to a greater extent than the parent nucleoside at concentrations above 1 μM |  |  |  |  | 10000 | no change in plasma concentration | 1 | did not affect | encouraging signals of anticancer activity | well tolerated

— publication PMC9743095 (Journal of Medicinal Chemistry, 2022)
